Assay results published in patent US20260070945A1, “MACROCYCLIC IMMUNOMODULATORS” (Bristol-Myers Squibb Company, priority 2022, published 2026).
pIC50: −log10 of the molar value. Where a SMILES comes first, the peptide text is derived from it. Bridges are numbered along the chain shown (N, C = ends). [ ]: non-standard residue; d: D form. The star is where a group is joined. ξ: configuration not given here. Phe(4-COOH) = N[C@@H](Cc1ccc(C(=O)O)cc1)C(=O)O; Bip = N[C@@H](Cc1ccc(-c2ccccc2)cc1)C(=O)O; Phe(3-Me) = Cc1cccc(C[C@H](N)C(=O)O)c1; Cyclopropanecarbonyl = O=C(C1CC1)*; Val(3-OH) = CC(C)(O)[C@H](N)C(=O)O; 4Pal = N[C@@H](Cc1ccncc1)C(=O)O; Cha = N[C@@H](CC1CCCCC1)C(=O)O; Cit = NC(=O)NCCC[C@H](N)C(=O)O; Thr(3ξ) = CC(O)[C@H](N)C(=O)O; 12Ado = NCCCCCCCCCCCC(=O)O; NMeS = CN[C@@H](CO)C(=O)O; Carboxymethyl = O=C(O)C*; NMeA = CN[C@@H](C)C(=O)O; Orn = NCCC[C@H](N)C(=O)O; Aun = NCCCCCCCCCCC(=O)O; Dab = NCC[C@H](N)C(=O)O; Dap = NC[C@H](N)C(=O)O; AEEA = NCCOCCOCC(=O)O

These molecules were tested against T1, PD-1/PD-L1 interaction (PE-labeled human PD-L1-Ig binding to Jurkat cell line over-expressing human PD-1) (Homo sapiens, UniProt Q15116) (assay: Jurkat-PD-1 Cell Binding High-Content Screening Assay (CBA)). Settings: Jurkat-hPD-1 cells, PE-labeled PD-L1-Ig 20 nM final; read-out: Jurkat HPD1 PDL1 IC50.
T1 construct: expressed in transfected cells; host or cells: Jurkat
T1 sequence (Q15116 25-288): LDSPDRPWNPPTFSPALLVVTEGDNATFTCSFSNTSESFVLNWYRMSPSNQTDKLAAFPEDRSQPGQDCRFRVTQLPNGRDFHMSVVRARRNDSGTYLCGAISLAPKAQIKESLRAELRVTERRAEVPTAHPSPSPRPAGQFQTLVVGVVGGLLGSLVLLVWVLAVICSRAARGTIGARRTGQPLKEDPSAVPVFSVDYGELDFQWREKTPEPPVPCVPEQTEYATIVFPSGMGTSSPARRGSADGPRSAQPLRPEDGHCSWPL
Outline: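 Read-out: high-content imaging of cell-bound PE fluorescence, with Hoechst 33342 nuclear counterstain after paraformaldehyde fixation. Before labeled ligand (20 nM final, 1 h) was added, compound sat on the cells for 2 h at 37 °C in DMEM/10% FCS.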

In order of rising pIC50:
1. CC(C)C[C@@H]1NC(=O)[C@H](Cc2c[nH]c3ccccc23)NC(=O)[C@H](CC(=O)O)NC(=O)[C@H](Cc2ccc(OCC(=O)O)cc2)NC(=O)[C@H](Cc2ccccc2)NC(=O)CSC[C@@H](C(=O)N[C@@H](CCCN)C(=O)NCCCCCCCCCCC(=O)O)NC(=O)[C@H](CCC(N)=O)NC(=O)[C@H](C(C)C)NC(=O)[C@H](CC(C)C)NC(=O)[C@H](CC(N)=O)NC(=O)[C@@H](CC(C)C)NC(=O)[C@H](C)N(C)C(=O)[C@H](C(C)C)NC(=O)[C@H](Cc2ccc(-c3ccccc3)cc2)NC1=O [Example 1345] ({CH2CO}-FY(Carboxymethyl)DWL[Bip]V[NMeA][dL]NLVQC[Orn][Aun]-OH; thioether N-14)  6.93
2. Cc1cccc(C[C@@H]2NC(=O)[C@H](CC(=O)O)NC(=O)[C@H](Cc3ccc(OCC(=O)O)cc3)NC(=O)[C@H](CCCNC(=N)N)NC(=O)CSC[C@@H](C(=O)NCCOCCOCC(=O)NCCCCCCCCCCC(=O)O)NC(=O)[C@H](C(C)O)NC(=O)[C@H](C(C)C)NC(=O)[C@H](CC3CCCCC3)NC(=O)[C@H](CCN)NC(=O)[C@@H](CC(C)C)NC(=O)[C@H](C)N(C)C(=O)[C@H](Cc3ccc(OCC(=O)O)cc3)NC(=O)[C@H](Cc3ccc(-c4ccccc4)cc3)NC(=O)[C@H](Cc3ccc(OCC(=O)O)cc3)NC2=O)c1 (stereo partly drawn) [Example 2342] ({CH2CO}-RY(Carboxymethyl)D[Phe(3-Me)]Y(Carboxymethyl)[Bip]Y(Carboxymethyl)[NMeA][dL][Dab][Cha]V[Thr(3ξ)]C[AEEA][Aun]-OH; thioether N-14)  7.13
3. Cc1cccc(C[C@@H]2NC(=O)[C@H](CC(=O)O)NC(=O)[C@H](Cc3ccc(OCC(=O)O)cc3)NC(=O)[C@H](CN)NC(=O)CSC[C@@H](C(=O)NCCCCCCCCCCC(=O)O)NC(=O)[C@H](CCCN)NC(=O)[C@H](C(C)C)NC(=O)[C@H](CC3CCCCC3)NC(=O)[C@H](CCN)NC(=O)[C@@H](CC(C)C)NC(=O)[C@H](C)N(C)C(=O)[C@H](Cc3ccc(O)cc3)NC(=O)[C@H](Cc3ccc(-c4ccccc4)cc3)NC(=O)[C@H](Cc3ccc(O)cc3)NC2=O)c1 [Example 1318] ({CH2CO}-[Dap]Y(Carboxymethyl)D[Phe(3-Me)]Y[Bip]Y[NMeA][dL][Dab][Cha]V[Orn]C[Aun]-OH; thioether N-14)  7.22
4. Cc1cccc(C[C@@H]2NC(=O)[C@H](CC(=O)O)NC(=O)[C@H](Cc3ccc(OCC(=O)O)cc3)NC(=O)[C@H](Cc3ccc(OCC(=O)O)cc3)NC(=O)CSC[C@@H](C(=O)N[C@@H](CCN)C(=O)NCCCCCCCCCCC(=O)O)NC(=O)[C@H]([C@@H](C)O)NC(=O)[C@H](C(C)C)NC(=O)[C@H](CC3CCCCC3)NC(=O)[C@H](CCN)NC(=O)[C@@H](CC(C)C)NC(=O)[C@H](C)N(C)C(=O)[C@H](Cc3ccc(OCC(=O)O)cc3)NC(=O)[C@H](Cc3ccc(-c4ccccc4)cc3)NC(=O)[C@H](C(C)C)NC2=O)c1 [Example 1264] ({CH2CO}-Y(Carboxymethyl)Y(Carboxymethyl)D[Phe(3-Me)]V[Bip]Y(Carboxymethyl)[NMeA][dL][Dab][Cha]VTC[Dab][Aun]-OH; thioether N-14)  7.50
5. Cc1cccc(C[C@@H]2NC(=O)[C@H](CC(=O)O)NC(=O)[C@H](Cc3ccc(OCC(=O)O)cc3)NC(=O)[C@H]([C@@H](C)O)NC(=O)CSC[C@@H](C(=O)N[C@@H](CCCN)C(=O)NCCOCCOCC(=O)NCCCCCCCCCCC(=O)O)NC(=O)[C@H]([C@@H](C)O)NC(=O)[C@H](C(C)C)NC(=O)[C@H](CC3CCCCC3)NC(=O)[C@H](CCN)NC(=O)[C@@H](CC(C)C)NC(=O)[C@H](C)N(C)C(=O)[C@H](Cc3ccc(OCC(=O)O)cc3)NC(=O)[C@H](Cc3ccc(-c4ccccc4)cc3)NC(=O)[C@H](Cc3ccc(OCC(=O)O)cc3)NC2=O)c1 [Example 1371] ({CH2CO}-TY(Carboxymethyl)D[Phe(3-Me)]Y(Carboxymethyl)[Bip]Y(Carboxymethyl)[NMeA][dL][Dab][Cha]VTC[Orn][AEEA][Aun]-OH; thioether N-14)  7.56
6. Cc1cccc(C[C@@H]2NC(=O)[C@H](CC(=O)O)NC(=O)[C@H](Cc3ccncc3)NC(=O)[C@H](Cc3ccc(OCC(=O)O)cc3)NC(=O)CSC[C@@H](C(=O)N[C@@H](CCN)C(=O)NCCOCCOCC(=O)NCCCCCCCCCCC(=O)O)NC(=O)[C@H](CCCN)NC(=O)[C@H](C(C)C)NC(=O)[C@H](CC3CCCCC3)NC(=O)[C@H](CC(N)=O)NC(=O)[C@@H](CC(C)C)NC(=O)[C@H](C)N(C)C(=O)[C@H](Cc3ccc(OCC(=O)O)cc3)NC(=O)[C@H](Cc3ccc(-c4ccccc4)cc3)NC(=O)[C@H](Cc3ccc(OCC(=O)O)cc3)NC2=O)c1 [Example 1359] ({CH2CO}-Y(Carboxymethyl)[4Pal]D[Phe(3-Me)]Y(Carboxymethyl)[Bip]Y(Carboxymethyl)[NMeA][dL]N[Cha]V[Orn]C[Dab][AEEA][Aun]-OH; thioether N-14)  7.63
7. Cc1cccc(C[C@@H]2NC(=O)[C@H](CC(=O)O)NC(=O)[C@H](Cc3ccc(OCC(=O)O)cc3)NC(=O)[C@H](CO)N(C)C(=O)CSC[C@@H](C(=O)NCCOCCOCC(=O)NCCCCCCCCCCC(=O)O)NC(=O)[C@H](CCCNC(=N)N)NC(=O)[C@H](C(C)C)NC(=O)[C@H](CC3CCCCC3)NC(=O)[C@H](CCN)NC(=O)[C@@H](CC(C)C)NC(=O)[C@H](C)N(C)C(=O)[C@H](C(C)C)NC(=O)[C@H](Cc3ccc(-c4ccccc4)cc3)NC(=O)[C@H](CC(C)C)NC2=O)c1 [Example 2277] ({CH2CO}-[NMeS]Y(Carboxymethyl)D[Phe(3-Me)]L[Bip]V[NMeA][dL][Dab][Cha]VRC[AEEA][Aun]-OH; thioether N-14)  7.73
8. Cc1cccc(C[C@@H]2NC(=O)[C@H](CC(=O)O)NC(=O)[C@H](Cc3ccc(OCC(=O)O)cc3)NC(=O)[C@H](CCCNC(=O)C3CC3)NC(=O)CSC[C@@H](C(=O)N[C@@H](CCN)C(=O)NCCCCCCCCCCC(=O)O)NC(=O)[C@H](C(C)O)NC(=O)[C@H](C(C)C)NC(=O)[C@H](CC3CCCCC3)NC(=O)[C@H](CCN)NC(=O)[C@@H](CC(C)C)NC(=O)[C@H](C)N(C)C(=O)[C@H](CCCNC(N)=O)NC(=O)[C@H](Cc3ccc(-c4ccccc4)cc3)NC(=O)[C@H](Cc3ccc(O)cc3)NC2=O)c1 (stereo partly drawn) [Example 2400] ({CH2CO}-[Orn](Cyclopropanecarbonyl)Y(Carboxymethyl)D[Phe(3-Me)]Y[Bip][Cit][NMeA][dL][Dab][Cha]V[Thr(3ξ)]C[Dab][Aun]-OH; thioether N-14)  7.96
9. CC(C)C[C@@H]1NC(=O)[C@H](Cc2c[nH]c3ccccc23)NC(=O)[C@H](CC(=O)O)NC(=O)[C@H](Cc2ccc(C(=O)O)cc2)NC(=O)[C@H](Cc2ccc(OCC(=O)O)cc2)NC(=O)CSC[C@@H](C(=O)N[C@@H](CCN)C(=O)NCCOCCOCC(=O)NCCCCCCCCCCC(=O)O)NC(=O)[C@H](CCC(N)=O)NC(=O)[C@H](C(C)(C)O)NC(=O)[C@H](CC2CCCCC2)NC(=O)[C@H](CCN)NC(=O)[C@@H](CC(C)C)NC(=O)[C@H](C)N(C)C(=O)[C@H](C(C)C)NC(=O)[C@H](Cc2ccc(-c3ccccc3)cc2)NC1=O [Example 1125] ({CH2CO}-Y(Carboxymethyl)[Phe(4-COOH)]DWL[Bip]V[NMeA][dL][Dab][Cha][Val(3-OH)]QC[Dab][AEEA][Aun]-OH; thioether N-14)  8.00

Same assay, conditions: PE-labeled PD-L1-Ig 20 nM final, Jurkat-hPD-1 cells; read-out: Jurkat HPD1 PDL1 IC50

In order of rising pIC50:
1. CC(C)C[C@H]1NC(=O)[C@H](C)N(C)C(=O)[C@H](Cc2ccc(OCC(=O)O)cc2)NC(=O)[C@H](Cc2ccc(-c3ccccc3)cc2)NC(=O)[C@H](Cc2ccc(OCC(=O)O)cc2)NC(=O)[C@H](Cc2c[nH]c3ccccc23)NC(=O)[C@H](CC(=O)O)NC(=O)[C@H](Cc2ccc(OCC(=O)O)cc2)NC(=O)[C@H](C(C)O)NC(=O)CSC[C@@H](C(=O)N[C@@H](CCN)C(=O)NCCCCCCCCCCC(=O)O)NC(=O)[C@H](CO)NC(=O)[C@H](Cc2cnc[nH]2)NC(=O)[C@H](CC2CCCCC2)NC(=O)[C@H](CCN)NC1=O (stereo partly drawn) [Example 2428] ({CH2CO}-[Thr(3ξ)]Y(Carboxymethyl)DWY(Carboxymethyl)[Bip]Y(Carboxymethyl)[NMeA][dL][Dab][Cha]HSC[Dab][Aun]-OH; thioether N-14)  6.59
2. CC(C)C[C@@H]1NC(=O)[C@H](Cc2c[nH]c3ccccc23)NC(=O)[C@H](CC(=O)O)NC(=O)[C@H](Cc2ccc(C(=O)O)cc2)NC(=O)[C@H](Cc2ccc(OCC(=O)O)cc2)NC(=O)CSC[C@@H](C(=O)NCCOCCOCC(=O)NCCCCCCCCCCC(=O)O)NC(=O)[C@H](CO)NC(=O)[C@H](C(C)O)NC(=O)[C@H](CC2CCCCC2)NC(=O)[C@H](CCN)NC(=O)[C@@H](CC(C)C)NC(=O)[C@H](C)N(C)C(=O)[C@H](C(C)C)NC(=O)[C@H](Cc2ccc(-c3ccccc3)cc2)NC1=O (stereo partly drawn) [Example 2433] ({CH2CO}-Y(Carboxymethyl)[Phe(4-COOH)]DWL[Bip]V[NMeA][dL][Dab][Cha][Thr(3ξ)]SC[AEEA][Aun]-OH; thioether N-14)  7.45
3. Cc1cccc(C[C@@H]2NC(=O)[C@H](CC(=O)O)NC(=O)[C@H](Cc3ccc(OCC(=O)O)cc3)NC(=O)[C@H]([C@@H](C)O)NC(=O)CSC[C@@H](C(=O)N[C@@H](CCN)C(=O)NCCOCCOCC(=O)NCCCCCCCCCCCC(=O)O)NC(=O)[C@H](C)NC(=O)[C@H](C(C)C)NC(=O)[C@H](CC3CCCCC3)NC(=O)[C@H](CCN)NC(=O)[C@@H](CC(C)C)NC(=O)[C@H](C)N(C)C(=O)[C@H](Cc3ccc(OCC(=O)O)cc3)NC(=O)[C@H](Cc3ccc(-c4ccccc4)cc3)NC(=O)[C@H](Cc3ccc(OCC(=O)O)cc3)NC2=O)c1 [Example 2669] ({CH2CO}-TY(Carboxymethyl)D[Phe(3-Me)]Y(Carboxymethyl)[Bip]Y(Carboxymethyl)[NMeA][dL][Dab][Cha]VAC[Dab][AEEA][12Ado]-OH; thioether N-14)  8.62
